Measured values: patent US20060269482A1 (priority 2005, published 2006)
Where two headings read alike, the source gives them in different places.

Tests used:
HCT116 cells = experiment: 5-day proliferation assay, cell growth inhibition; assay type: cell-based; conditions: Homo sapiens, HCT-116, 120 h; HCT116, 5-day proliferation assay
MTLn3 cells = experiment: cell growth inhibition in rat tumor cell line; assay type: cell-based
[1] = test system: retinoblastoma protein (Rb) phosphorylation in HCT116 cells; experiment: Rb phosphorylation in HCT116 cells by Western blot and ELISA; assay type: cell-based, human; conditions: HCT116, 20 hours, 0.1, 0.2 and 0.6 μM
Method: Cells were washed 3 times with cold PBS on ice and scraped from the flasks. All cells were collected in 15 ml tubes. Cells were pelleted by centrifugation and lysis buffer was added (1:1 PBS: 2× Tris-Glycine SDS Sample Buffer (Invitrogen, Carlsbad, Calif.) containing 5% 2-β mercaptoethanol). The volume of lysis buffer used was 5 ul per 1×10^6 cells. Samples were sonicated for 30 seconds on ice. Following sonication, samples were clarified by centrifugation at 16,000×g for 10 minutes at 4° C. and protein concentrations were determined using Non-Interfering Protein Assay Kit (Geno Technology Incorporated, Maplewood, Mo.). Proteins were denatured by boiling for 5 minutes and centrifuged as described above. […] For Western blotting, total Rb was detected using antibody from Pharmingen (BD Bioscience, San Diego, Calif.) at a dilution of 1:2000. The phosphorylation status of Rb at serine 780, serine 795 and serine 807/811 was detected with phosphospecific antibodies at dilutions of 1:1000 (Cell Signaling Technology, Beverly, Mass.). […]
HCT116 cells were treated for 20 hours at the IC50 (0.1 μM), IC90 (0.2 μM) and 3×IC90 (0.6 μM) concentrations for cell growth inhibition, as determined in a 5-day proliferation assay. Lysates were analyzed by Western blotting for Rb phosphorylation at serine 795 and serine 780 (FIG. 1). […]

[2] = test system: retinoblastoma protein (Rb) phosphorylation in MTLn3 cells; experiment: Rb phosphorylation in MTLn3 cells by Western blot; assay type: cell-based, rat; conditions: MTLn3, 20 hours, 0.17, 0.24 and 0.72 μM
Method: Cells were washed 3 times with cold PBS on ice and scraped from the flasks. All cells were collected in 15 ml tubes. Cells were pelleted by centrifugation and lysis buffer was added (1:1 PBS: 2× Tris-Glycine SDS Sample Buffer (Invitrogen, Carlsbad, Calif.) containing 5% 2-β mercaptoethanol). The volume of lysis buffer used was 5 ul per 1×10^6 cells. Samples were sonicated for 30 seconds on ice. Following sonication, samples were clarified by centrifugation at 16,000×g for 10 minutes at 4° C. and protein concentrations were determined using Non-Interfering Protein Assay Kit (Geno Technology Incorporated, Maplewood, Mo.). Proteins were denatured by boiling for 5 minutes and centrifuged as described above. […] For Western blotting, total Rb was detected using antibody from Pharmingen (BD Bioscience, San Diego, Calif.) at a dilution of 1:2000. The phosphorylation status of Rb at serine 780, serine 795 and serine 807/811 was detected with phosphospecific antibodies at dilutions of 1:1000 (Cell Signaling Technology, Beverly, Mass.).
Lysates were analyzed by Western blotting for Rb phosphorylation using polyclonal antibodies prepared against a peptide corresponding to sequences surrounding phosphorylated serine 807/811 in human Rb (FIG. 3).

[3] = Plasma and tumor exposures after a single oral dose; assay type: in vivo, rat
Method: Female Fischer rats obtained from Charles River Laboratories were used when they were ˜13-15 weeks old and weighed ˜150 grams. All animals were examined prior to the initiation of studies to ensure that they were healthy and acclimated to the laboratory environment. Autoclaved water and irradiated food were provided ad libitum, and the animals were maintained in a 12 hour light and dark cycle.
The test compound COMPOUND A, [4-amino-2-(1-methanesulfonylpiperidin-4-ylamino) pyrimidin-5-yl]-(2,3-difluoro-6-methoxyphenyl)methanone, was synthesized by Discovery Chemistry, Hoffmann-La Roche Inc. COMPOUND A was formulated as a suspension in 1% Klucel LF with 0.1% Tween 80 for oral injection. Compound was stored at 4° C. and vortexed immediately prior to administration.
The dose selected was 80 mg/kg, determined to be an efficacious dose in this animal model. Tumor growth inhibition in the MTLn3 xenograft model after 2 to 3 weeks of oral dosing at 80 mg/kg once weekly averaged 90% with 2/10 complete regressions. COMPOUND A was dosed on day 10 post implantation of cells, at which time the tumors were 100-200 mm^3 in size. In this pharmacokinetic/pharmacodynamic experiment, plasma and tumors were collected at 1, 2, 6, 24 and 72 hours post dosing of a single oral dose of COMPOUND A. Tumors were removed and immediately snap frozen in liquid nitrogen and stored at −80° C. until drug concentration analysis. Untreated and vehicle treated control groups were included in the analysis. Concentrations of COMPOUND A in plasma and tumors were determined in the same three animals per time point. Whole blood was also collected for analysis of Rb phosphorylation. Peripheral blood mononuclear cells (PBMCs) were isolated, stimulated ex vivo with mitogen and analyzed by Western blot as described below.
In a second pharmacodynamic study, plasma concentrations of COMPOUND A were similarly analyzed as described above, and Rb phosphorylation in both PBMCs and tumor xenografts treated with a single oral dose of COMPOUND A was examined.
After a single oral dose of 80 mg/kg, plasma and tumor tissues show a similar concentration time profile of COMPOUND A. Maximum concentrations in both plasma and tumor tissue were observed 1 hr post dose. The concentrations in the tumor samples taken from the same animals were approximately 50% of the plasma concentration and at 24 hrs tumor drug levels (164±28 ng/g) approximated plasma exposures at 24 hours (250±74 ng/ml) (FIG. 7). Drug levels in plasma and tumor tissue were measurable up to 24 hrs after dosing in all the animals in PD 664 (3 rats per time point). […] Overall the plasma data seem fairly predictive for tumor concentrations particularly since the extraction of drug from the tumor samples might be less than complete. No drug was detectable in the vehicle group.
Similarly in PD 675, after a single 80 mg/kg oral dose of COMPOUND A, drug was measurable in all the animals up to 6 hrs (339±88 ng/ml) and in ⅔ animals 24 hr and 48 hr after dosing. Mean plasma concentrations were steady from 1-24 hr. No drug was detectable in the vehicle group.

[4] = single oral dose 80 mg/kg, rat, PD 664

Structure (SMILES): COc1ccc(F)c(F)c1C(=O)c1cnc(NC2CCN(S(C)(=O)=O)CC2)nc1N [COMPOUND A, [4-amino-2-(1-methanesulfonylpiperidin-4-ylamino)pyrimidin-5-yl]-(2,3-difluoro-6-methoxyphenyl)methanone]
- IC50 (HCT116 cells): 100 nM
- IC90 (HCT116 cells): 200 nM
- IC50 (MTLn3 cells): 170 nM
- IC90 (MTLn3 cells): 240 nM
- Rb phosphorylation at serine 795, serine 780 (Western blot) and threonine 821 (ELISA) [1]: inhibition of phosphorylation at all three CDK phosphorylation sites in a concentration-dependent fashion
- Rb phosphorylation at epitope recognized by anti-phospho-serine 807/811 antibody [2]: inhibition of phosphorylation
- concentration at 6 h ([3]; female, Fischer, rat, plasma, single 80 mg/kg oral dose, PD 675, 6 hrs): 339 ± 88 ng/mL
- concentration at 24 h ([3]; female, Fischer, rat, plasma, single oral dose 80 mg/kg, 24 hours, PD 664, read-out: Plasma exposure at 24 hours): 250 ± 74 ng/mL
- concentration at 72 h ([3]; female, Fischer, rat, plasma, single oral dose 80 mg/kg, PD 664, one out of three animals measurable): ≥ 12.5 ng/mL
- Kp ([3]; female, Fischer, rat, tumor / plasma, single oral dose 80 mg/kg, same animals, PD 664, read-out: Tumor concentration as percent of plasma concentration): ~0.5
- concentration at 24 h ([3]; female, Fischer, rat, tumor, single oral dose 80 mg/kg, 24 hrs, PD 664, read-out: Tumor drug level at 24 hrs): 164 ± 28 ng/g
- Time up to which drug levels in plasma and tumor tissue were measurable in all animals ([3]; single oral dose 80 mg/kg, PD 664, 3 rats per time point): up to 24 hrs
- Time of maximum concentration in plasma [3, 4]: 1 h
- Time of maximum concentration in tumor tissue [3, 4]: 1 h
